According to US20230374038A1, “MODULATORS OF CYSTIC FIBROSIS TRANSMEMBRANE CONDUCTANCE REGULATOR” (VERTEX PHARMACEUTICALS INCORPORATED, priority 2020, published 2023):

Molecular target: CFTR (Homo sapiens, UniProt P13569)
Experiment: Membrane Potential Dye, Enteroid Assay B
Format: cell-based
Details: for EC50: read-out: Ent. B EC50
Description: Base medium (ADF+++) consisted of Advanced DMEM/Ham's F12, 2 mM Glutamax, 10 mM HEPES, 1 µg/mL penicillin/streptomycin.
Intestinal enteroid maintenance medium (IEMM) consisted of ADF+++, 1× B27 supplement, 1× N2 supplement, 1.25 mM N-acetyl cysteine, 10 mM Nicotinamide, 50 ng/mL hEGF, 10 nM Gastrin, 1 pg/mL hR-spondin-1, 100 ng/mL hNoggin, TGF-b type 1 inhibitor A-83-01, 100 μg/mL Primocin, […] P38 MAPK inhibitor SB202190.
Bath 1 Buffer consisted of 1 mM MgCl2, 160 mM NaCl, 4.5 mM KCl, 10 mM HEPES, 10 mM Glucose, 2 mM CaCl2).
Chloride Free Buffer consisted of 1 mM Magnesium Gluconate, 2 mM Calcium Gluconate, 4.5 mM Potassium Gluconate, 160 mM Sodium Gluconate, 10 mM HEPES, 10 mM Glucose.
Bath1 Dye Solution consisted of Bath 1 Buffer, 0.04% Pluronic F127, […] Methyl Oxonol, 30 μM CaCCinh-A01, 30 μM Chicago Sky Blue.
Chloride Free Dye Solution consisted of Chloride Free Buffer, 0.04% Pluronic F127, 20 μM Methyl Oxonol, 30 μM CaCCinh-A01, 30 μM Chicago Sky Blue.
Chloride Free Dye Stimulation Solution consisted of Chloride Free Dye Solution, 10 μM forskolin, 100 μM IBMX, and 300 nM Compound III.
Human intestinal epithelial enteroid cells were obtained from the Hubrecht Institute for Developmental Biology and Stem Cell Research, Utrecht, The Netherlands and expanded in T-Flasks as previously described (Dekkers J F, Wiegerinck C L, de Jonge H R, Bronsveld I, Janssens H M, de Winter-de Groot K M, Brandsma A M, de Jong N W M, Bijvelds M J C, Scholte B J, Nieuwenhuis E E S, van den Brink S, Clevers H, van der Ent C K, Middendorp S and M Beekman J M. A functional CFTR assay using primary cystic fibrosis intestinal organoids. Nat Med. 2013 July; 19(7):939-45.).
Cells were recovered in cell recovery solution, collected by centrifugation at 650 rpm for 5 min at 4° C., resuspended in TryPLE and incubated for 5 min at 37° C. Cells were then collected by centrifugation at 650 rpm for 5 min at 4° C. and resuspended in IEMM containing 10 μM ROCK inhibitor (RI). The cell suspension was passed through a 40 μm cell strainer and resuspended at 1×10^6 cells/mL in IEMM containing 10 μM RI. Cells were seeded at 5000 cells/well into multi-well plates and incubated for overnight at 37° C., 95% humidity and 5% CO2 prior to assay.
Enteroid cells were incubated with test compound in IEMM for 18-24 hours at 37° C., 95% humidity and 5% CO2. […] Briefly, cells were washed 5 times in Bath 1 Buffer. Bath 1 Dye Solution was added and the cells were incubated for 25 min at room temperature. Following dye incubation, cells were washed 3 times in Chloride Free Dye Solution. Chloride transport was initiated by addition of Chloride Free Dye Stimulation Solution and the fluorescence signal was read for 15 min. […] Chloride transport was then expressed as a percentage of the chloride transport following treatment with 1 μM (14S)-8-[3-(2-{Dispiro[2.0.2.1]heptan-7-yl}ethoxy)-1H-pyrazol-1-yl]-12,12-dimethyl-2λ^6-thia-3,9,11,18,23-pentaazatetracyclo[17.3.1.111,14.05,10]tetracosa-1(22),5,7,9,19(23),20-hexaene-2,2,4-trione, 3 μM (R)-1-(2,2-difluorobenzo[d][1,3]dioxol-5-yl)-N-(1-(2,3-dihydroxypropyl)-6-fluoro-2-(1-hydroxy-2-methylpropan-2-yl)-1H-indol-5-yl)cyclopropanecarboxamide and 300 nM acute N-[2,4-bis(1,1-dimethylethyl)-5-hydroxyphenyl]-1,4-dihydro-4-oxoquinoline-3-carboxamide triple combination control (% Activity).

Chain of CFTR (P13569 with tags, fused parts or gaps DEL508-508): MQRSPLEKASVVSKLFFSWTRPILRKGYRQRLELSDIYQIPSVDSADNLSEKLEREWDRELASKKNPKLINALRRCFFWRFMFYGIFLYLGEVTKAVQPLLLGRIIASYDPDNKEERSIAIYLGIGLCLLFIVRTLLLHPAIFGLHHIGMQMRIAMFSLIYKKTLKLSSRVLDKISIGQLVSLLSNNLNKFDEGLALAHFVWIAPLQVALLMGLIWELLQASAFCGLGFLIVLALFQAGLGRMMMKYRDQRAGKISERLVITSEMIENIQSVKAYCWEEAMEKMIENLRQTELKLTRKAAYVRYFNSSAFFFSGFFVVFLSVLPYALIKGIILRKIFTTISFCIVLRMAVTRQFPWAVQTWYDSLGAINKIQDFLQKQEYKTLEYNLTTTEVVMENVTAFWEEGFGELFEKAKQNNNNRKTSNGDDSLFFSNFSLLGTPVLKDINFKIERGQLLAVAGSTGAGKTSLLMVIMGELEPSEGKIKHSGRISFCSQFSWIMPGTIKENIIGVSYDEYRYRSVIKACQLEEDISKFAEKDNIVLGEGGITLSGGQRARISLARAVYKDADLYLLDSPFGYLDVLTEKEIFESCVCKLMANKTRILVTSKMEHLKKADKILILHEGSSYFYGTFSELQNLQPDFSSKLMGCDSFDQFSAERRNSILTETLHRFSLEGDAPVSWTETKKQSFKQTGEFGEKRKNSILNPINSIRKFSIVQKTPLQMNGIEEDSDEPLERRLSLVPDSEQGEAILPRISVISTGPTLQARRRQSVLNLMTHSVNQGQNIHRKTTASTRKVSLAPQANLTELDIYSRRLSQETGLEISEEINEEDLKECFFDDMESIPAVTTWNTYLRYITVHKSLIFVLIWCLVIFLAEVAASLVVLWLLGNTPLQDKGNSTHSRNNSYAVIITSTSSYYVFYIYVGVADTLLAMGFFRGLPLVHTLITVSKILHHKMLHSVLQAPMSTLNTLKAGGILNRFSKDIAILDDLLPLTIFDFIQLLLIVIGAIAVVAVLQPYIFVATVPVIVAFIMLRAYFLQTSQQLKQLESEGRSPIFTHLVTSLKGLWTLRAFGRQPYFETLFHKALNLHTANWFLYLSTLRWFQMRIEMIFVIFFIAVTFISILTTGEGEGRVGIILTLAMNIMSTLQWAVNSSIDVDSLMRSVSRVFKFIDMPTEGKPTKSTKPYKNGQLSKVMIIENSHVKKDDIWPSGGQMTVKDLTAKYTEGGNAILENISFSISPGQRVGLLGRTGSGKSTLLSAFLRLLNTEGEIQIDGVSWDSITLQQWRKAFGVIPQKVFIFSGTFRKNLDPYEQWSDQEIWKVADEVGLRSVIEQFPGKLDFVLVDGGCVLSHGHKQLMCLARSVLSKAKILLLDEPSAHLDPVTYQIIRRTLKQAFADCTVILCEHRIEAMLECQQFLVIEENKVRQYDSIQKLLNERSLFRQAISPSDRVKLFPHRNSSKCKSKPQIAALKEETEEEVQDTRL

Compound | Ent. B Max Activity | EC50 [nM]
Cc1cccc(C)c1-c1nc2nc(c1C)OC(c1ccc(CC3(C(F)(F)F)CC3)cn1)CN(C)C(=O)c1cccc(c1)S(=O)(=O)N2 (stereo not shown) [Compound 204] | ++ (++ is 30-60%) | < 1000
Cc1cccc(C)c1-c1nc2nc(c1C)OC[C@@H](CC(C)C)N(C1CC3(CCN(C(=O)OC(C)C)CC3)C1)C(=O)c1cccc(c1)S(=O)(=O)N2 [Compound 70] | +++ (+++ is >60%) | < 1000
[H][C@]1(N2C(=O)c3cccc(c3)S(=O)(=O)Nc3nc(c(C)c(-c4c(C)cccc4C)n3)OC[C@H]2CC(C)(C)C)C[C@@]2(C[C@H](C(C)(C)O)C2)C1 (single isomer, unassigned) [Compound 58] | +++ (+++ is >60%) | < 1000
Cc1cccc(C)c1-c1nc2nc(c1C)OC[C@@H](CC1(C(F)(F)F)CC1)N(C1CC3(CC(N(C)C)C3)C1)C(=O)c1cccc(c1)S(=O)(=O)N2 (stereo in doubt) [Compound 91] | +++ (+++ is >60%) | < 1000
COC(=O)NC1CC2(C1)CC(N1C(=O)c3cccc(c3)S(=O)(=O)Nc3nc(c(C)c(-c4c(C)cccc4C)n3)OC[C@H]1CC(C)(C)C)C2 (single isomer, unassigned) [Compound 61] | +++ (+++ is >60%) | < 1000
Cc1cccc(C)c1-c1nc2nc(c1C)OC[C@@H](CCC(C)(C)O)N(CCCC(C)(C)O)C(=O)c1cccc(c1)S(=O)(=O)N2 [Compound 109] | ++ (++ is 30-60%) | 3000 to 30000
Cc1cccc(C)c1-c1nc2nc(c1C)OCCN(C1CC3(CC(NC(=O)OC(C)(C)C)C3)C1)C(=O)c1cccc(c1)S(=O)(=O)N2 (stereo not shown) [Compound 37] | ++ (++ is 30-60%) | < 1000
Cc1cccc(C)c1-c1nc2nc(c1/C=C/C(C)(C)C)O[C@H](C)CNC(=O)c1cccc(c1)S(=O)(=O)N2 [Compound 121, (10R)-7-[(E)-3,3-Dimethylbut-1-enyl]-6-(2,6-dimethylphenyl)-10-methyl-2,2-dioxo-9-oxa-2λ^6-thia-3,5,12,19-tetrazatricyclo[12.3.1.14,8]nonadeca-1(18),4(19),5,7,14,16-hexaen-13-one] | +++ (+++ is >60%) | < 1000
COc1ccc(-c2c3nc(nc2-c2c(C)cccc2C)NS(=O)(=O)c2cccc(c2)C(=O)N[C@H](C)CO3)cc1 [Compound 144] | +++ (+++ is >60%) | < 1000
COC1CC(N2C(=O)c3cccc(c3)S(=O)(=O)Nc3nc(c(C)c(-c4c(C)cccc4C)n3)OC[C@H]2CC(C)C)C1 (stereo in doubt) [Compound 72] | +++ (+++ is >60%) | < 1000
COC(=O)NC1CC2(C1)CC(N1C(=O)c3cccc(c3)S(=O)(=O)Nc3nc(c(C)c(-c4c(C)cccc4C)n3)OC[C@H]1CC1(C(F)(F)F)CC1)C2 (stereo in doubt) [Compound 88] | +++ (+++ is >60%) | < 1000
COC(=O)NC1CC2(C1)CC(N1C(=O)c3cccc(c3)S(=O)(=O)Nc3nc(c(C)c(-c4c(C)cccc4C)n3)OC[C@H]1CC1(C(F)(F)F)CC1)C2 (stereo in doubt) [Compound 86] | +++ (+++ is >60%) | < 1000
Cc1cccc(C)c1-c1nc2nc(c1C)OC[C@@H](CC1(C(F)(F)F)CC1)N(C1CC3(CC(CO)C3)C1)C(=O)c1cccc(c1)S(=O)(=O)N2 (stereo partly shown) [Compound 80] | +++ (+++ is >60%) | < 1000
COC1CC(N2C(=O)c3cccc(c3)S(=O)(=O)Nc3nc(c(C)c(-c4c(C)cccc4C)n3)OC[C@H]2CC(C)C)C1 (stereo in doubt) [Compound 71] | +++ (+++ is >60%) | < 1000
CCc1c2nc(nc1-c1c(C)cccc1C)NS(=O)(=O)c1cccc(c1)C(=O)N[C@@H]1CN(C3CC4(CCCCC4)C3)C[C@H]1O2 [Compound 115] | +++ (+++ is >60%) | < 1000
Cc1cccc(C)c1-c1nc2nc(c1C)OC[C@@H](CCC(C)(C)O)N(Cc1ccc(C(C)(C)O)cc1)C(=O)c1cccc(c1)S(=O)(=O)N2 [Compound 112] | ++ (++ is 30-60%) | 1000 to 3000
Cc1cccc(C)c1-c1nc2nc(c1C)OC[C@@H](CC(C)(C)C)N(C1CC3(CC3)C1)C(=O)c1cccc(c1)S(=O)(=O)N2 [Compound 101] | +++ (+++ is >60%) | < 1000
Cc1cccc(C)c1-c1nc2nc(c1-c1cccnc1)O[C@H](C)CNC(=O)c1cccc(c1)S(=O)(=O)N2 [Compound 133] | + (+ is <30%) | 
Cc1cccc(C)c1-c1nc2nc(c1C)OC[C@@H](CC(C)(C)C)N(C1CC3(CC(CO)C3)C1)C(=O)c1cccc(c1)S(=O)(=O)N2 (stereo in doubt) [Compound 78] | +++ (+++ is >60%) | < 1000
Cc1cccc(C)c1-c1nc2nc(c1-c1ccncc1)OC[C@@H](C)NC(=O)c1cccc(c1)S(=O)(=O)N2 [Compound 145] | + (+ is <30%) | 
Cc1cccc(C)c1-c1nc2nc(c1C)OC[C@@H](CC(C)(C)C)N(C1CC3(CC(NC(=O)OC(C)(C)C)C3)C1)C(=O)c1cccc(c1)S(=O)(=O)N2 (single isomer, unassigned) [Compound 60] | +++ (+++ is >60%) | < 1000
Cc1cccc(C)c1-c1nc2nc(c1C)OC[C@@H](CC(C)C)N([C@H]1C[C@@]3(C[C@H](NC(=O)OC(C)C)C3)C1)C(=O)c1cccc(c1)S(=O)(=O)N2 (single isomer, unassigned) [Compound 52] | +++ (+++ is >60%) | < 1000
Cc1cccc(C)c1-c1nc2nc(c1/C=C/C(C)(C)C)OC[C@@H](CC(C)C)NC(=O)c1cccc(c1)S(=O)(=O)N2 [Compound 126, (11R)-7-[(1E)-3,3-dimethylbut-1-en-1-yl]-6-(2,6-dimethylphenyl)-11-(2-methylpropyl)-9-oxa-2λ^6-thia-3,5,12,19-tetraazatricyclo[12.3.1.14,8]nonadeca-1(17),4,6,8(19),14(18),15-hexaene-2,2,13-trione] | +++ (+++ is >60%) | < 1000
COc1ccccc1-c1c2nc(nc1-c1c(C)cccc1C)NS(=O)(=O)c1cccc(c1)C(=O)NC[C@@H](C)O2 [Compound 131] | +++ (+++ is >60%) | 1000 to 3000
Cc1cccc(C)c1-c1nc2nc(c1-c1ccccc1)OC[C@@H](C)NC(=O)c1cccc(c1)S(=O)(=O)N2 [Compound 142] | ++ (++ is 30-60%) | < 1000
Cc1cccc(C)c1-c1nc2nc(c1C)OC[C@@H](CC(C)C)NC(=O)c1cccc(c1)S(=O)(=O)N2 [Compound 73] | +++ (+++ is >60%) | < 1000
Cc1cccc(C)c1-c1nc2nc(c1C)OC[C@@H](CC1(C(F)(F)F)CC1)N(C1CC3(CC(NC(=O)OC(C)(C)C)C3)C1)C(=O)c1cccc(c1)S(=O)(=O)N2 (stereo in doubt) [Compound 98] | +++ (+++ is >60%) | < 1000
COC(=O)NC1CC2(C1)CC(N1C(=O)c3cccc(c3)S(=O)(=O)Nc3nc(c(C)c(-c4c(C)cccc4C)n3)OC[C@H]1CC(C)C)C2 (stereo in doubt) [Compound 68] | +++ (+++ is >60%) | < 1000
Cc1cccc(C)c1-c1nc2nc(c1C)OC[C@@H](CCC(C)(C)O)N(Cc1ncccn1)C(=O)c1cccc(c1)S(=O)(=O)N2 [Compound 113] | ++ (++ is 30-60%) | 3000 to 30000
COc1ccccc1-c1c2nc(nc1-c1c(C)cccc1C)NS(=O)(=O)c1cccc(c1)C(=O)NC[C@@H](C)O2 [Compound 153] | +++ (+++ is >60%) | < 1000
